Earlier results as cited in US20230181552A1, “EXTERNAL PREPARATION OF IMIDACLOPRID, PREPARATION METHOD AND USE THEREOF” (Qingdao Bolin Biological Technology Co., Ltd., priority 2021, published 2023).

Tests used:
rabbits, mice and rats = details: sublethal doses, systemic use
[1] = test system: nicotinic receptor sites of mammals; details: background statement
[2] = test system: postsynaptic nicotinic acetylcholine receptors in the central nervous system of insects; details: background statement

For `O=[N+]([O-])NC1=NCCN1Cc1ccc(Cl)nc1` [Imidacloprid, imidacloprid], the “pharmacological activity in mammals” value (rabbits, mice and rats) is given as “little pharmacological activity”, the “affinity to nicotinic receptor sites of mammals” value [1] is given as “weak affinity” and the “affinity for postsynaptic nicotinic acetylcholine receptors in the central nervous system of insects” value [2] is given as “high affinity”.
